Measurements as given in PubChem BioAssay AID1918956 (Molecular Pharmacology Branch, DTP, NCI, 2023).
Where “and” joins values, the source holds several entries; their conditions need not be identical. Equal values may be shown once.

System: OVCAR-5 complex spheroids, viability
Assay: Anticancer human tumor OVCAR-5 cell line growth inhibition;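 further: spheroids exposed to agents for seven days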;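 on viability, T/C: 100% = DMSO vehicle control wells viability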
Conditions: for viability, T/C: stronger effect = lower value
Procedure, shortened: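 Drug combinations with the LSD1 inhibitor iadademstat tested on tumor cells co-cultured as spheroids with endothelial cells and mesenchymal stem cells. Concentrations descended in half-log increments from clinical Cmax or 10 microM.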

[1] = curve of first compound, second compound 0.1 µM
[2] = curve of first compound, second compound 0.316 µM
[3] = curve of first compound, second compound 1 µM
[4] = curve of first compound, second compound 3.16 µM
[5] = curve of first compound, second compound 10 µM
[6] = second compound 0.1 µM, first compound 0.00949 µM
[7] = second compound 0.1 µM, first compound 0.03 µM
[8] = second compound 0.1 µM, first compound 0.0949 µM
[9] = second compound 0.1 µM, first compound 0.3 µM
[10] = second compound 0.1 µM, first compound 0.949 µM
[11] = second compound 0.1 µM, first compound 3 µM
[12] = second compound 0.316 µM, first compound 0.00949 µM
[13] = second compound 0.316 µM, first compound 0.03 µM
[14] = second compound 0.316 µM, first compound 0.0949 µM
[15] = second compound 0.316 µM, first compound 0.3 µM
[16] = second compound 0.316 µM, first compound 0.949 µM
[17] = second compound 0.316 µM, first compound 3 µM
[18] = second compound 1 µM, first compound 0.00949 µM
[19] = second compound 1 µM, first compound 0.03 µM
[20] = second compound 1 µM, first compound 0.0949 µM
[21] = second compound 1 µM, first compound 0.3 µM
[22] = second compound 1 µM, first compound 0.949 µM
[23] = second compound 1 µM, first compound 3 µM
[24] = second compound 3.16 µM, first compound 0.00949 µM
[25] = second compound 3.16 µM, first compound 0.03 µM
[26] = second compound 3.16 µM, first compound 0.0949 µM
[27] = second compound 3.16 µM, first compound 0.3 µM
[28] = second compound 3.16 µM, first compound 0.949 µM
[29] = second compound 3.16 µM, first compound 3 µM
[30] = second compound 10 µM, first compound 0.00949 µM
[31] = second compound 10 µM, first compound 0.03 µM
[32] = second compound 10 µM, first compound 0.0949 µM
[33] = second compound 10 µM, first compound 0.3 µM
[34] = second compound 10 µM, first compound 0.949 µM
[35] = second compound 10 µM, first compound 3 µM

SMILES: NS(=O)(=O)OCC1CC(n2ccc3c(NC4CCc5ccccc54)ncnc32)CC1O (configuration not stated) + NC1CCC(NC2CC2c2ccccc2)CC1
- IC50 [1]: 0.202 µM
- IC50 [2]: 0.223 µM
- IC50 [3]: 0.221 µM
- IC50 [4]: 0.179 µM
- IC50 [5]: 0.152 µM
- viability, T/C [6]: 122%
- viability, T/C [7]: 118%
- viability, T/C [8]: 76%
- viability, T/C [9]: 36.6%
- viability, T/C [10]: 16.2%
- viability, T/C [11]: 9.81%
- viability, T/C [12]: 139%
- viability, T/C [13]: 126%
- viability, T/C [14]: 84.8%
- viability, T/C [15]: 38.4%
- viability, T/C [16]: 15.5%
- viability, T/C [17]: 10.6%
- viability, T/C [18]: 108%
- viability, T/C [19]: 98.6%
- viability, T/C [20]: 80.8%
- viability, T/C [21]: 38.2%
- viability, T/C [22]: 17.9%
- viability, T/C [23]: 10.7%
- viability, T/C [24]: 98.8%
- viability, T/C [25]: 105%
- viability, T/C [26]: 69.2%
- viability, T/C [27]: 33.5%
- viability, T/C [28]: 16.4%
- viability, T/C [29]: 9.81%
- viability, T/C [30]: 101%
- viability, T/C [31]: 79.3%
- viability, T/C [32]: 64.7%
- viability, T/C [33]: 34%
- viability, T/C [34]: 14.3%
- viability, T/C [35]: 8.62%

SMILES: O=C(C=Cc1cccc(S(=O)(=O)Nc2ccccc2)c1)NO
- viability, T/C (compound 0.00949 µM): 89.1% and 94.7%
- viability, T/C (compound 0.03 µM): 88.7% and 80.5%
- viability, T/C (compound 0.0949 µM): 61.9% and 55.5%
- viability, T/C (compound 0.3 µM): 31.6% and 27.4%
- viability, T/C (compound 0.949 µM): 15.4% and 10.4%
- viability, T/C (compound 3 µM): 4.04% and 2.72%
- IC50 (curve of compound): 0.156 µM and 0.118 µM

SMILES: CCN(c1cc(-c2ccc(CN3CCOCC3)cc2)cc(C(=O)NCc2c(C)cc(C)[nH]c2=O)c1C)C1CCOCC1 + NC1CCC(NC2CC2c2ccccc2)CC1
- IC50 [1]: > 3 µM
- IC50 [2]: > 3 µM
- IC50 [3]: > 3 µM
- IC50 [4]: > 3 µM
- IC50 [5]: > 3 µM
- viability, T/C [6]: 116%
- viability, T/C [7]: 110%
- viability, T/C [8]: 96.1%
- viability, T/C [9]: 100%
- viability, T/C [10]: 106%
- viability, T/C [11]: 101%
- viability, T/C [12]: 109%
- viability, T/C [13]: 114%
- viability, T/C [14]: 101%
- viability, T/C [15]: 108%
- viability, T/C [16]: 103%
- viability, T/C [17]: 101%
- viability, T/C [18]: 92.4%
- viability, T/C [19]: 105%
- viability, T/C [20]: 90.6%
- viability, T/C [21]: 97%
- viability, T/C [22]: 96.5%
- viability, T/C [23]: 87.6%
- viability, T/C [24]: 96%
- viability, T/C [25]: 94.5%
- viability, T/C [26]: 94%
- viability, T/C [27]: 81.4%
- viability, T/C [28]: 89.9%
- viability, T/C [29]: 94.4%
- viability, T/C [30]: 88.2%
- viability, T/C [31]: 82.1%
- viability, T/C [32]: 93.7%
- viability, T/C [33]: 79.9%
- viability, T/C [34]: 72.5%
- viability, T/C [35]: 76.4%
